Tested on: sediment microcosms
Assay: Effect of TCC, TCS and BES on TCE dechlorination in sediment microcosms and cultures derived from them
Type: cell-based
Settings: for effect on TCE reductive dechlorination in microcosms: addition of 20 μg/L TCC and TCS; for effect on TCE dechlorination rates in sediment-free cultures: cultures from microcosms amended with TCC, TCS, BES
Protocol: In this study, microcosm is defined as: anaerobic airtight serum bottles with sediment samples, anaerobic medium, electron donor, and a chlorinated compound used as an electron acceptor. Four microcosms were set up in the anaerobic glove chamber with H2 concentration of 3% (Coy laboratory products Inc. Grass Lake, Mich.). Ten gram of homogeneously mixed sediment from either core A or core D were transferred independently into a 160 ml sterile serum bottle, and 90 ml anaerobic media with vitamin solution and 2 mM lactate were added. One hundred μL of 20 mg/L TCC stock solution in methanol and 100 μL of 20 mg/L TCS stock solution were added by pipette (Eppendorf, Calif.) to two of the four microcosms. Microcosms were capped with thick black butyl rubber stoppers and aluminum crimps. 4.5 μL pure TCE was injected with airtight syringe (Hamilton Company, Reno, Nev.) into each serum bottle. On day 130, in order to inhibit methane production in the sediment microcosms, 25 mM BES was added in to sediment-A microcosm and sediment-D microcosm with TCC and TCS with airtight syringe (Hamilton Company, Reno, Nev.). Microcosms were stored in the dark and incubated at 30° C.
Production of Sediment-Free Cultures. To establish sediment-free cultures from core A and core D sediment microcosms, the microcosms were shaken vigorously, and the solids were allowed to settle down. Then, using 1-inch, 21-gauge sterile needles, […] liquid (10 ml) were transferred into 89 ml sterile medium with the following contents: anaerobic medium, ATCC vitamin mix, and vitamin B12, in 160-ml serum bottles. Then, 1 ml each of 500-mM lactate stock solution and 35-μL TCE stock solution (1 mol/L in methanol) were added to form a 100 ml culture in 160-ml serum bottle. Three sediment cultures were derived from each sediment microcosm, and 12 sediment-free cultures were produced (FIG. 1). For organizational purposes, we refer to the sediment-free cultures generated from sediment-A microcosms as SCA and the sediment free cultures generated from sediment-D microcosms as DehaloR̂2, in the figures herein, the DehaloR̂2 are referred to as “SCD”. Thus, the term “SCD” and DehaloR̂2 are used interchangeably herein as the composition “SCD” was renamed “DehaloR̂2” during the course of investigation. The sediment-free cultures were kept in the dark and incubated at 30° C. After all the chlorinated electron acceptors were consumed, the cultures were re-spiked with TCE and electron donors.
BES (2-bromoethanesulfonate) is an efficient inhibitor for the metabolism of methanogens in methanogenetic cultures because it is a structural analog and competitive inhibitor of coenzyme M, which is only found in methanogens (Dimarco et al., 1990; Sparling and Daniels, 1987). Different concentrations of BES have been used by researchers. […] In this study, in order to determine if the cause for incomplete reductive dechlorination was competition for electron donor between methanogens and TCE dechlorinating microorganisms in the microcosms, I added 25 mM BES, 70 μmol of TCE, and 5 mM lactate into two sediment microcosms, sediment-A and sediment-D with TCC and TCS. In two other sediment microcosms, I added 70 μmol of TCE and 5 mM lactate without BES.

O=C(Nc1ccc(Cl)cc1)Nc1ccc(Cl)c(Cl)c1 [TCC, 3-(4-chlorophenyl)-1-(3,4-dichlorphenyl) urea] was tested, and the “effect on TCE reductive dechlorination in microcosms” value was “can be neglected” and the “effect on TCE dechlorination rates in sediment-free cultures” value was “slow down TCE dechlorination rates”.
Oc1cc(Cl)ccc1Oc1ccc(Cl)cc1Cl [TCS, 5-chloro-2-[2,4-dichloro-phenoxy]-phenol] was tested, and the “effect on TCE reductive dechlorination in microcosms” value was “can be neglected” and the “effect on TCE dechlorination rates in sediment-free cultures” value was “slow down TCE dechlorination rates”.
